Patent publication US20020177625A1, “Class of glaucoma drugs to enhance aqueous humor outflow and lower intra-ocular pressure” (The Regents of the University of California, a California …, priority 2001, published 2002)
Entries after “also recorded” stand apart in the source; their conditions may differ.

Legend:
[1] = tested on: human TM cells; experiment: Regulatory volume decrease (RVD) of human TM cells in hypotonic medium (electronic cell sizing); type: cell-based; details: hypotonic medium (200 mOsm), agent at 1 mM
Method: (§1) By the second method, TM cells were trypsinized briefly in Ca-free medium, then rinsed with medium containing trypsin inhibitor and suspended in Hepes MEM. Mean cell volumes were then analyzed by electronic cell sizing on a COULTER COUNTER™ radioassay (Model ZM) with channelizer (C256), using at least 50,000 cells per data point and an orifice diameter of 140 μm. Aliquots of suspended cells were diluted into Hepes MEM containing the tonicity and/or agents to be evaluated. Mean cell volumes of each suspension aliquot were followed over time, starting at 1 minute after addition of cells to the assay media. Cell suspensions were maintained at 37° C. throughout the assay period. Absolute volumes (picoliters/cell) were calculated from distribution curves of cell diameter, using a standard curve generated by polystyrene latex beads of known diameter.
In FIG. 7A, cells were exposed to isotonic medium (300 mOsm) or to hypotonic medium (200 mOsm)±1 mM DPC (diphenylamine carboxylate). Cell volume was assessed by COULTER COUNTER™ electronic cell sizing over the time course shown, using TM cells in suspension. […] Data represent means of two experiments, error values shown are SEM, n=4 (two separate RVD runs per experiment).
Data represent means of two experiments, error values shown are SEM, n=4 (two separate RVD runs per experiment).

[2] = tested on: human TM cells; experiment: Whole cell patch clamp ion conductances of human TM cells; type: cell-based; details: human TM cells
Method: Further studies conducted with agents known to block Cl and K channels attenuate the swelling-activated regulatory volume decrease in TM cells and niflumic acid reduces both cell volume and intracellular [Cl] of TM cells. In these studies, human TM cells were cultured from donor eyes and used between passages three and eight. Routine whole cell patch clamp methods were used to assess conductances of TM cells in isotonic (290 mOsm) and hypotonic (230 mOsm) media, with or without NPPB, DIDS, TEA or niflumic acid. Conductances were determined from current/voltage plots, generated using a ramp protocol. […] The reversal potential observed in the presence of hypotonic medium was close to the calculated reversal potential for Cl. Switching to an external medium containing reduced Cl shifted the reversal potential toward that calculated for the low Cl medium. Treating the TM cells with the Cl channel blocker NPPB (100 μM) abolished the swelling-activated conductance in a manner reversed by subsequent washout of NPPB. […] Finally, treatment of the cells with the K channel blocker TEA (1 mM) also abolished the niflumic acid-activated TM cell conductance.
Human TM and SC cells grown to subconfluence are gently trypsinized on the day of the experiment and immediately exposed to trypsin-neutralizing solution and then allowed to settle onto standard square (22×22-mm) glass coverslips for 30 minutes before use. Routine patch clamp methods were used as described previously Barakat, A. I., et al., Circulation Research, 85: 820-828, 1999; Hamill, O. P. et al., Pflügers Archives, 391: 85-100, 1981; Mauro, T. et al., J of Invest. Dermatology, 105: 203-208, 1995; Pappone, P. A. et al., J. of Physiology, 306:377-410, 1980; Pappone, P. A. et al., J of Gen. Physiology, 106: 231-258, 1995; Pappone, P. A. et al., Amer. J. of Physiology: Cell Physiology, 264: C1014-C1019, 1993; Wilson, S. M. et al., J. of Gen. Physiology, 113: 125-138, 1999. Using the whole cell patch clamp mode, conductances were assessed for isotonic and hypotonic media. By assessing current/voltage (I/V) relationships and reversal potentials for the TM and SC cells while using specific concentrations of Cl in the pipette and bath media, the nature of the conductances observed can be determined.
Whole cell currents were measured at room temperature in a Warner recording/perfusion chamber (Warner Instrument Corp.) using standard whole-cell patch clamp techniques as described previously, Lucero, M. T. et al., J. of Gen. Physiology, 95:523-544, 1999. Thick-walled borosilicate capillaries (Sutter Instruments, Inc., Novato, Calif.) were used to manufacture pipettes with resistances of 3 to 5 MW. The voltage offset between the patch pipette and the bath solution were nulled immediately before patch formation. An agar bridge containing […] KCl was used to ground the bath solution. Voltages were recorded from a patch-clamp amplifier (AXOPATCH 200A, Axon Instruments). Data was collected on a Macintosh personal computer using Pulse+Pulsefit software (HEKA Elektronik). Whole-cell currents were recorded from single (sub confluent) cells with membrane capacitances nulled through the patch-clamp amplifier. The voltage ramp protocol included a voltage step from the holding potential to +60 mV for 40 ms followed by a ramp to −100 mV over a period of 400 ms followed by a return to the holding potential. During the protocol, voltage ramps were conducted once every 5 seconds for 10 minutes, yielding 120 traces. Conductances were computed by taking the derivative of a least-squares straight line fit to the I-V data plots using Igor Pro Software (Wavemetrics, Inc.). In cases in which the I-V plots are not linear over the entire voltage ramp (as in FIGS. 6AB), computation of the whole-cell conductance were restricted to a linear range, typically 0 to +60 mV. […]

[3] = tested on: human TM cells; experiment: Intracellular volume of human TM cells (14C-urea/14C-sucrose water space or COULTER COUNTER electronic cell sizing), isotonic medium; type: cell-based; details: for reduction in intracellular volume: human TM cells, 10 μM bumetamide, isotonic conditions; for TM cell volume: hormones and intracellular regulators acting on the co-transporter
Method: The intracellular volume of human and bovine TM cells was evaluated by two methods: 1) radioisotopic evaluation of TM monolayer intracellular water space using ^14C-urea and ^14C-sucrose as markers of total and extracellular space, respectively; and 2) electronic cell sizing of suspended TM cells, using a COULTER COUNTER™ assay (Coulter Electronics, Ltd., Hialeah, Fla.). Details of these methods have been described previously by O'Donnell (O'Donnell, M. E., supra, 1993) the entirety of which is incorporated herein by reference.
By the first method, cell monolayers were preequilibrated for 30 minutes in Hepes MEM at 37° C. in an air atmosphere, then incubated for 20 minutes in Hepes MEM containing 0 or 10 μM bumetamide, ethacrynic acid, or other agents to be tested, and finally incubated for 10 minutes in the same medium containing either ^14C-urea or ^14C-sucrose (both at 1 μCi/ml). Monolayers were then rinsed with isotonic ice-cold MgCl2 and radioactivity of SDS extracts determined by liquid scintillation. Specific activities (counts per minute/ml) of ^14C-urea and ^14C-sucrose in the assay medium were determined and used to calculate water space associated with trapped radioactivity (expressed as μl/mg protein. Intracellular volume was calculated as the difference between the water space determined for ^14C-urea (a marker for intracellular plus trapped extracellular space) and ^14C-sucrose (a marker for trapped extracellular space).
as §1
Human TM cells were exposed to isotonic medium ±niflumic acid (10 or 100 μM)±10 μM bumetamide. Cell volume was assessed by COULTER COUNTER™ electronic cell sizing over the time course shown, using TM cells in suspension. Note that niflumic acid (NA) alone decreases volume of the TM cells and that exposing the cells to NA plus bumetamide causes a further decrease in TM cell volume. Data represent means of two experiments (all conditions shown tested in both experiments).

[4] = target: T1, Na—K—Cl co-transporter (Homo sapiens, UniProt P55011); experiment: Na—K—Cl co-transport measured as bumetamide-sensitive K influx (86Rb tracer) in human TM cell monolayers; type: cell-based
T1 construct: endogenous in cells; host or cells: cultured human trabecular meshwork (TM) cells, normal or glaucomatous donors
T1 sequence (P55011 1-1212): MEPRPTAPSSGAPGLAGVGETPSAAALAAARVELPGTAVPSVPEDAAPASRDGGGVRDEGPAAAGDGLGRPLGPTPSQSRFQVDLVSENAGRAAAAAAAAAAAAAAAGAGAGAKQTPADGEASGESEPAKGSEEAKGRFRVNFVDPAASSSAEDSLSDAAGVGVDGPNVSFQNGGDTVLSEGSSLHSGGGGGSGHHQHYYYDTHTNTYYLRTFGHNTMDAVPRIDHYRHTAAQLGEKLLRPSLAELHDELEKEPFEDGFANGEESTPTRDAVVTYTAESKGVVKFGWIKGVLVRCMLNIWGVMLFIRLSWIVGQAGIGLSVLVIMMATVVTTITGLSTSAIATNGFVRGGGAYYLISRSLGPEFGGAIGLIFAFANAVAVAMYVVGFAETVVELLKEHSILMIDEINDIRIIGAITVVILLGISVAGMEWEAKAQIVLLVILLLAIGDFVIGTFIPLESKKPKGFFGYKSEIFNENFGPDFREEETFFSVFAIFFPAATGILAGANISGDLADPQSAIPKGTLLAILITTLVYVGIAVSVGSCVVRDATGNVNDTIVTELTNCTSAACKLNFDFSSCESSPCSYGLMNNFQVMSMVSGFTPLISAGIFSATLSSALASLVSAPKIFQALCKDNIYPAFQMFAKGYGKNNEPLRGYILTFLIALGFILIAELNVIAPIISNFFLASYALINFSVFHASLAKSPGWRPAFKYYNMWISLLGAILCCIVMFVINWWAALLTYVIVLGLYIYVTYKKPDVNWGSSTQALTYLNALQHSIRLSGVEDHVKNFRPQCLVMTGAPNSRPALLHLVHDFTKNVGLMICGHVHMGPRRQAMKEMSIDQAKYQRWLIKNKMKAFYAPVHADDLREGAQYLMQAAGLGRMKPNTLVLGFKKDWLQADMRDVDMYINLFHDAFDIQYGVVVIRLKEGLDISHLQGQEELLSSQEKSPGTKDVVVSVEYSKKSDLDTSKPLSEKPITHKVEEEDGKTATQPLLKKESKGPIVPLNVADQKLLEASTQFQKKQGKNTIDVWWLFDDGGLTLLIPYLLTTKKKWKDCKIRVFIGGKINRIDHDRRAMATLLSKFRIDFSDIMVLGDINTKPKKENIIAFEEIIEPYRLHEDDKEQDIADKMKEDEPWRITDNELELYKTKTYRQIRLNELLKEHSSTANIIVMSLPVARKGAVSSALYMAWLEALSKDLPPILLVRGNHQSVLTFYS
Method: Na—K—Cl co-transport was measured as ouabain-insensitive, bumetamide-sensitive potassium influx, using ^86Rb as a tracer for potassium. […] The assay medium also contained ^86Rb (1 μCi/ml) (Dupont New England Nuclear, Boston, Mass.). The assay was terminated by rinsing the wells with ice-cold isotonic MgCl2, then extracting the contents with 0.2% sodium dodecyl sulfate (SDS), and determining the amount of radioactive contents by liquid scintillation. Osmolarities of all preincubation and assay media were verified by osmometry (Model 3W2, Advanced Instruments, Norwood, Mass.).
The cells were pretreated with Hepes-buffered minimal essential medium (MEM) ±10 μM bumetamide ±1 mM ouabain for 5 min, then assayed for 5 min in the same media plus ^86Rb. […] Data are means ±SEM, n=12.
Na—K—Cl co-transport activity of glaucomatous human TM cells was assessed as ouabain-insensitive, bumetamide-sensitive K influx, using ^86Rb as a tracer for K, as described previously. TM cells were preincubated for 5 minutes in a Hepes-buffered MEM containing 0 or 10 μM bumetamide in the presence of 1 mM ouabain, followed by a 5 minute assay in media of identical composition except that they also contained ^86Rb. […] Data are mean values ±SEM in seven normal TM cultures (donor age range, 38-68 years, n=12 in each cell culture) and in seven glaucomatous cultures (donor age range 41-75 years, n=7 in each cell culture).
Human TM cells were equilibrated in Hepes-buffered MEM for 30 minutes and then pretreated for 5 minutes in media containing 1 mM ouabain, 10 or 0 μM bumetamide, and 0.3 μM to 1 mM niflumic acid (NA). Cells were then assayed for bumetamide-sensitive K influx for 5 minutes in media identical to the pretreatment media but also containing ^86Rb (1 μCi/ml). […] Dashed line indicates control level of Na—K—Cl co-transport. Data are means ±SEM of at least 4 determinations from 3 experiments.

[5] = tested on: perfused human anterior chambers; experiment: Outflow facility of perfused human anterior chambers; details: perfused with bumetamide
Description: The effect is expected to be transient because after the initial cell shrinkage, the co-transporter is activated to restore volume in the TM cells and, thus, the cell shrinkage is only transient. […] Here again, the cells rapidly respond to altered volume, in this case by activating ion efflux pathways to decrease volume of the cells to normal.

For `O=S(=O)(O)c1cc(N=C=S)ccc1C=Cc1ccc(N=C=S)cc1S(=O)(=O)O` [DIDS, 4,4′-diisothiocyanostilbene-2,2′-disulfonic acid], which “regulatory volume decrease (RVD)” value [1] is on record?
The value was “attenuated; also recorded: reduced”.

And the “swelling-activated (hypotonic medium-induced) ion conductance” value ([2]; DIDS 1 mM)?
Its value is “does not increase; also recorded: abolished; also recorded: blocked”.

Which “regulatory volume decrease (RVD)” value [1] does the source give for `O=C(O)c1ccccc1Nc1ccccc1` [DPC, diphenylamine carboxylate] here?
The value was “attenuated”.

Which “swelling-activated (hypotonic medium-induced) ion conductance” value ([2]; NPPB 100 μM) does the source give for `O=C(O)c1cc([N+](=O)[O-])ccc1NCCCc1ccccc1` [NPPB] here?
Its value is “blocked; also recorded: abolished”.

Which “regulatory volume decrease (RVD)” value [1] does the source give for `CC[N+](CC)(CC)CC` [TEA, tetraethylammonium] here?
Its value is “diminished”.

And the “niflumic acid-activated TM cell conductance” value ([2]; niflumic acid 100 μM plus K channel blocker TEA 1 mM)?
Its value is “abolished”.

Which results are given for `CCCCNc1cc(C(=O)O)cc(S(N)(=O)=O)c1Oc1ccccc1` [bumetamide]?
reduction in intracellular volume ([3]; 30 minute exposure): 12±4%; reduction in intracellular volume ([3]; 60 minute exposure): 25±6%; cell volume of normal and glaucomatous TM cells ([3]; normal and glaucomatous human TM cells exposed to bumetamide): decreased; total K influx in TM cells ([4]; human TM cells, 10 μM bumetamide, 86Rb tracer): blocks a substantial portion; outflow facility [5]: sustained elevation

Which TM cell volume [3] does the source give for `Nc1ncnc2c1ncn2[C@@H]1O[C@@H]2COP(=O)(O)O[C@H]2[C@H]1O` [cyclic AMP] here?
Its TM cell volume is “reduce”.

And the “inhibition of Na—K—Cl co-transporter of glaucomatous TM cells” value ([4]; glaucomatous human TM cells)?
Its value is “insensitive”.

Which “regulatory volume decrease (RVD)” value [1] does the source give for `NS(=O)(=O)c1cc(C(=O)O)c(NCc2ccco2)cc1Cl` [furosemide] here?
Its value is “no effect”.

Which TM cell volume [3] does the source give for `NC[C@H](O)c1ccc(O)c(O)c1` [norepinephrine] here?
Its TM cell volume is “reduce”.
